Assays:
Integrins αV and β5 = Integrins αV and β5 extractability, denaturing gel, HS cells; assay type: cell-based, human
Source text: (§1) In the native gel, intensities of integrin bands are not changed in a parallel fashion to that in denaturing gels, which may be the result of intramolecular alterations.
(§2) […] In FIG. 6, the effect of AEEA on fibronectin, integrins αV and β5, and N-cadherin is examined, which have all been implicated in the development of HS. In a denaturing gel, TGFβ1 and AEEA exposure has a similar effect of increasing extractability of integrins and, to some extent, N-cadherin. […] Most interesting are interactions between AEEA and TGFβ1 with regard to HS cell expression of fibronectin, a critical molecule in cell adhesion, growth, migration, and differentiation, which is implicated in HS.

collagen type 1 = test: Collagen type 1 extractability, sequential denaturing ECM extraction (RIPA then urea), Western blot densitometry; assay type: cell-based, human; conditions: for increased extractability of collagen type 1 (by densitometry): 14 day exposure, HS fibroblasts, urea lysis buffer
Experimental: Preparation of Decellularized Matrix Scaffold, or Extracellular Matrix (ECM): The methods for isolation and characterization of the matrix of skin cells (fibroblastic-type cells) derived from normal (N Fb) and those derived from hypertrophic scar (HS Fb), as well as an embryonic fibroblast (E Fb) as a further control for comparison by the present inventors; these basic methods can be followed in the characterization of mechanism(s) of HS. Briefly, fibroblast-like cells are cultured on 13 mm diameter Nunc™ Thermanox™ Coverslips (Catalog #174950) in 24-well cell culture plates in DMEM supplemented with 13% FCS, antibiotics, and 50 μg/ml of sodium ascorbate; cells are seeded at the number that cell density reaches 70% confluence in 24 hours. AEEA treatments start before the formation of ECM, at the second day post passage. Sodium ascorbate, which is the crucial cofactor of lysyl oxidase (LOX), lysyl hydroxylase, and proline hydroxylase (to be assayed), is added daily, 5 days/week, to stimulate ECM assembly. AEEA is changed with culture media (every 3 days). […] The next day, water is replaced with PBS, and the preparation is ready for AFM, or other biochemical, molecular or proteomic studies as described below. […]
Total collagen content of the matrix can be determined by established extraction procedures and a dye-binding method based on the specific binding of Sirius Red dye to the [Gly-X-Y]n helical structure of collagen types I to XIV. […] Elastin can be determined in separate samples as soluble tropoelastin utilizing a dye binding assay (Accurate Chemical Corp., Westbury, N.Y.) and as insoluble elastin by repeated salt and alkali extraction as previously described. The effects of AEEA on collagen and other extra-cellular protein abundances can be further evaluated by using the normal human neonatal primary dermal fibroblast (ATCC® PCS-201-010™), and normal skin fibroblasts (NS Fb), and also hypertrophic scar fibroblasts (HS Fb) derived from skin of the other clinically evident HS developed by patients. […]

[1] = Rat model of 30% scald burn, localized injections, adverse effect on skin or burn wound healing; assay type: in vivo
Experimental: To assess the possibility of an adverse AEEA effect on skin or burn wound healing, a rat model of 30% scald burn was utilized. AEEA was used to treat burns (or unburned skin as sham) by localized multiple injections (5 of 0.1 ml) of AEEA at 5.0 and 50.0 mM concentrations, which are 100- or 1,000-fold of the effective concentration in our cell culture, respectively, but is only 10% concentration of the rat DAA experiments by gavage.

skin fibroblasts = test: Scanning EM of interstitial matrix (skin fibroblasts removed); assay type: cell-based, human; conditions: AEEA 5, 10 mM, cells removed
Experimental: Briefly, fibroblast-like cells are cultured on 13 mm diameter Nunc™ Thermanox™ Coverslips (Catalog #174950) in 24-well cell culture plates in DMEM supplemented with 13% FCS, antibiotics, and 50 μg/ml of sodium ascorbate; cells are seeded at the number that cell density reaches 70% confluence in 24 hours. AEEA treatments start before the formation of ECM, at the second day post passage. Sodium ascorbate, which is the crucial cofactor of lysyl oxidase (LOX), lysyl hydroxylase, and proline hydroxylase (to be assayed), is added daily, 5 days/week, to stimulate ECM assembly. AEEA is changed with culture media (every 3 days). […] After 14 days of culture, the resulting tissue sheets are gently rinsed twice with PBS, and then incubated in sterile deionized water for 20 minutes at 4° C. to lyse the cells with hypotonic condition (decellularization). Matrix is rinsed free of cell debris, and ECM samples are kept overnight at 4° C.

triple helical collagen = test: Native (non-denaturing) gel of collagen tertiary structure (triple helix) in HS cells; assay type: cell-based, human; conditions: for TGFβ1 effect: increase in triple helical collagen: TGFβ1 exposure last 4 days
Experimental: Native lysis buffer uses digitonin; see text. […] TGFβ1 treatment (4 days) increases mature (triple helical) structure, while changing monomer ratio, an effect that is mimicked by AEEA-alone at 25 μM but not at 50 μM (see text and FIG. 7 re: fibronectin). TGFβ1 effect appears attenuated by 50 μM AEEA.
PGK1/2 is fraction marker. […] These collagen aberrations were then examined with non-denaturing, or “native” gels (FIG. 5). “Native” or “non-denaturing” gel electrophoresis is run in non-denaturing conditions, i.e., in the absence of any charged denaturing agents, such as SDS; and reducing agent. Native gel allows for the protein's natural structure to be maintained. Thus, the physical size of the folded or assembled complex affects mobility. In SDS-PAGE, the electrophoretic mobility of proteins depends primarily on their molecular mass alone; in native gel the mobility also depends on both the protein's charge and its hydrodynamic size. The native lysis buffer used contains: 50 mM Tris-HCl, pH 7.5; 150 mM NaCl and 1% Digitonin.
However this finding is not present at 50 μM AEEA. Following 25 μM AEEA alone, a 6-fold increase was seen. The triple helical structure in the presence of both AEEA and TGFβ1 appeared relatively diminished.
Total collagen content of the matrix can be determined by established extraction procedures and a dye-binding method based on the specific binding of Sirius Red dye to the [Gly-X-Y]n helical structure of collagen types I to XIV. The method has virtually an exact correlation with analytic methods for hydroxyproline content. Elastin can be determined in separate samples as soluble tropoelastin utilizing a dye binding assay (Accurate Chemical Corp., Westbury, N.Y.) and as insoluble elastin by repeated salt and alkali extraction as previously described. The effects of AEEA on collagen and other extra-cellular protein abundances can be further evaluated by using the normal human neonatal primary dermal fibroblast (ATCC® PCS-201-010™), and normal skin fibroblasts (NS Fb), and also hypertrophic scar fibroblasts (HS Fb) derived from skin of the other clinically evident HS developed by patients. Time course and dose response studies can also be used to test the effects of AEEA on stability of those proteins, by Western blotting, to see if it is degraded more quickly in the AEEA treated cells. For Western Blot, cultured N Fb and FS Fb grown and treated with AEEA as described above can be gently washed with 4° C. pre-chilled PBS. The plate is then placed on the surface of a −20° C. ice block. […] The protein concentrations of the samples extracted with RIPA measured by with the DC™ protein assay kit (Bio-Rad Laboratories, Inc. USA), while the protein of remaining extracts is quantitated with the BCA protein assay (Pierce). […]

N-Cadherin = test: Extractable N-Cadherin, denaturing gel, HS cells; assay type: cell-based, human; conditions: especially with both AEEA and TGFβ1
Source text: as §1, §2

fibronectin = test: Fibronectin extractability, denaturing gel following digitonin, HS cells; assay type: cell-based, human
Experimental: Increased extractability of fibronectin induced by TGFβ1, with little effect of AEEA at 25 or 50 μM. However, the TGFβ1 enhancement of fibronectin is blocked by 50 μM AEEA (last two lanes). Fibronectin, a critical cell adhesion molecule, is implicated in HS. […] See text for densitometric analysis, FIGS. 3-7.

[2] = in utero exposure; cited from earlier work
α-SMA = α-SMA Western blot in normal (N) and HS skin fibroblasts; assay type: cell-based, human
Source text: GAPDH is loading control. […] GAPDH is loading control. […] The effects of AEEA on collagen and other extra-cellular protein abundances can be further evaluated by using the normal human neonatal primary dermal fibroblast (ATCC® PCS-201-010™), and normal skin fibroblasts (NS Fb), and also hypertrophic scar fibroblasts (HS Fb) derived from skin of the other clinically evident HS developed by patients. Time course and dose response studies can also be used to test the effects of AEEA on stability of those proteins, by Western blotting, to see if it is degraded more quickly in the AEEA treated cells. For Western Blot, cultured N Fb and FS Fb grown and treated with AEEA as described above can be gently washed with 4° C. pre-chilled PBS. The plate is then placed on the surface of a −20° C. ice block. […] Therefore, samples are serially extracted with RIPA buffer, urea extraction buffer and then 0.5 M acetic acid; or, with native sample buffer, as described above. […] The protein concentrations of the samples extracted with RIPA measured by with the DC™ protein assay kit (Bio-Rad Laboratories, Inc. USA), while the protein of remaining extracts is quantitated with the BCA protein assay (Pierce). […] Signals are recorded on film (CL-XPousure™ film, Thermo Scientific) by using ECL™ Western blot detection reagents (Amersham Biosciences, RPN2209).

Compound	effect on Integrins αV and β5 (extractability) (Integrins αV and β5)	increased extractability of collagen type 1 (by densitometry) (collagen type 1; 25 μM AEEA) [fold]	increased extractability of collagen type 1 (by densitometry) (collagen type 1; 100 μM AEEA) [fold]	increase of Collagen I extractability, densitometrically (collagen type 1; human burn wound fibroblasts (from HS) cultured in 50 μM compound) [fold]	localized skin or systemic effects ([1]; 5 injections of 0.1 ml at 5.0 and 50.0 mM, burns or unburned skin)	histology, AEEA sites vs vehicle (PBS buffer) sites ([1]; normal unburned skin or full thickness burns, 7 days post-burn)	appearance of interstitial matrix by SEM (skin fibroblasts)	increase in triple helical collagen (triple helical collagen; 25 μM AEEA alone, 7 days, native gel) [fold]	TGFβ1 effect on triple helical collagen in presence of AEEA (triple helical collagen; 50 μM AEEA plus TGFβ1, 7 days)	Extractable N-Cadherin (N-Cadherin)	TGFβ1 enhancement of fibronectin in presence of AEEA (fibronectin; 50 μM AEEA plus TGFβ1, HS cells)	effect on extractability of fibronectin (fibronectin; AEEA at 25 or 50 μM alone, HS cells)	finding in rat pups born to mother rats exposed in utero [2]	α-SMA expression (α-SMA; 1-10 mM AEEA, 14 days, normal (N) and HS skin fibroblasts)	α-SMA expression (α-SMA; low (μM) AEEA doses, 14 day exposure, HS fibroblasts)	TGFβ1 effect: increase in triple helical collagen (triple helical collagen; 0.0 (control) AEEA, 7 days) [fold]	TGFβ1 effect: increase in triple helical collagen (triple helical collagen; with 25 μM AEEA, 7 days) [fold]	increased extractability of fibronectin (fibronectin; TGFβ1 alone, denaturing gel, HS cells) [fold]
NCCNCCO [AEEA, N-(2-aminoethyl) ethanolamine]	increasing	2	5	3	no untoward localized skin or systemic effects	no qualitative or quantitative differences	marked irregularities	6	not present	increased	blocked	little effect	dramatic dissecting aortic aneurysms	loss of α-SMA	not down-regulated	–	–	–
TGFβ1: transforming growth factor-β1, regulator of scarring used to treat HS cells [reference compound]	increasing	–	–	–	–	–	–	–	–	increased	–	–	–	–	–	10	16	5
